Like-named read-outs stand apart in the source and are kept apart here.
Columns and labels:
[1] = MTT cytotoxicity test, small intestinal epithelial cells; assay type: cell-based, human; details: human, FHs 74 Int normal small intestinal epithelial cells, FHs 74 Int cells, 100 µg/mL, 48 h, read-out: cell viability at the maximum concentration tested
Experimental: (§1) Distigmasterol-modified acylglycerols were examined for their cytotoxicity in normal human cells originating from the digestive system. The cells were treated for 48 h with increasing concentrations of dStigMAs, and cell proliferation, metabolic activity, and viability were assayed using the MTT test. The cytotoxic effects of the analyzed dStigMAs on CCD 841CoN colon mucosa cells, FHs 74 Int small intestine epithelial cells, and THLE-2 hepatocytes are presented in Figure 6.
(§2) The cytotoxicity of dStigMAs was analyzed at the maximum concentration of 100 µg/mL, which corresponded to doses of 83 µM of dStigC-PA, 81 µM of dStigC-OA, 76 µM of dStigS-PA, and 75 µM of dStigS-OA. The minimum doses tested were 10,000-fold lower. Cell viability and metabolic activity were assessed using the MTT test following the procedure described by Olejnik et al..
(§3) Figure 6 Effect of dStigMAs on (A) normal small intestinal epithelial cells (FHs 74 Int, ATCC® CCL241™), (B) normal colonic epithelial cells (CCD 841CoN, ATCC® CRL-179™), and (C) normal liver cells (THLE-2, ATCC® CRL-2706™).

[2] = tested on: FHs 74 Int small intestine epithelial cells; assay: as above; assay type: cell-based, human; details: FHs 74 Int cells; for dose at which first cytotoxic symptoms were noted: 48 h treatment; for EC50: Homo sapiens, FHs74Int, read-out: median effective concentration (EC50); for EC50 / cytotoxicity (in words): 48 h; for cytotoxicity (in words): 100 µg/mL and lower concentrations
Experimental: as §1, §2, §3

[3] = MTT cytotoxicity test, colon mucosa cells; assay type: cell-based, human; details: human, CCD 841CoN normal colonic epithelial cells, colon cells (CCD 841CoN), 100 µg/mL, read-out: cell proliferation and viability at the maximum dose
Experimental: as §1, §2, §3

[4] = MTT cytotoxicity test, hepatocytes; assay type: cell-based, human; details: human, THLE-2 normal liver cells (hepatocytes), liver cells (THLE-2), 100 µg/mL, read-out: cell proliferation and viability at the maximum dose
Experimental: as §1, §2, §3

[5] = tested on: CCD 841CoN colon mucosa cells; assay: MTT cytotoxicity test, colon mucosa cells; assay type: cell-based, human; details: CCD 841CoN cells, 100 µg/mL and lower concentrations, 48 h
Experimental: as §1, §2, §3

THLE-2 hepatocytes = assay: MTT cytotoxicity test, hepatocytes; assay type: cell-based, human; details: THLE-2 cells, 100 µg/mL and lower concentrations, 48 h
Experimental: as §1, §2, §3

| SMILES | viability at 48 h, 100 µg/mL [1] [%] | dose at which first cytotoxic symptoms were noted [2] [µg/mL] | EC50 [2] [mg/L] | EC50 ([2]; value in brackets) [µM] | viability at 48 h, 100 µg/mL [3] [%] | viability at 48 h, 100 µg/mL [4] [%] | cytotoxicity (in words) [2] | cytotoxicity (in words) [5] | cytotoxicity (in words) (THLE-2 hepatocytes) | melting point [°C] |
| --- | --- | --- | --- | --- | --- | --- | --- | --- | --- | --- |
| CCCCCCCCC=CCCCCCCCC(=O)OCC(COC(=O)OC1CCC2(C)C(=CCC3C2CCC2(C)C(C(C)C=CC(CC)C(C)C)CCC32)C1)OC(=O)OC1CCC2(C)C(=CCC3C2CCC2(C)C(C(C)C=CC(CC)C(C)C)CCC32)C1 (stereo not shown) [dStigC-OA, 2,3-Distigmasterylcarbonoyl-1-Oleoyl-sn-Glycerol] | 20.2 | 0.1 | 0.47 | 0.381 | 59.4 | 48.9 | – | – | – | – |
| CCCCCCCCCCCCCCCC(=O)OCC(COC(=O)O[C@H]1CC[C@@]2(C)C(=CC[C@H]3[C@@H]4CC[C@H]([C@H](C)/C=C/[C@@H](CC)C(C)C)[C@@]4(C)CC[C@@H]32)C1)OC(=O)O[C@H]1CC[C@@]2(C)C(=CC[C@H]3[C@@H]4CC[C@H]([C@H](C)/C=C/[C@@H](CC)C(C)C)[C@@]4(C)CC[C@@H]32)C1 (stereo partly shown) [dStigC-PA, 1,2-Distigmasterylcarbonoyl-3-Palmitoyl-sn-Glycerol] | 17.5 | 0.1 | 0.32 | 0.266 | 53.8 | 56.3 | – | – | – | – |
| CCCCCCCCC=CCCCCCCCC(=O)OCC(COC(=O)CCC(=O)OC1CCC2(C)C(=CCC3C2CCC2(C)C(C(C)C=CC(CC)C(C)C)CCC32)C1)OC(=O)CCC(=O)OC1CCC2(C)C(=CCC3C2CCC2(C)C(C(C)C=CC(CC)C(C)C)CCC32)C1 (stereo not shown) [dStigS-OA, 2,3-Distigmasterylsuccinoyl-1-Oleoyl-sn-Glycerol] | – | – | – | – | – | – | no cytotoxic activity | no cytotoxic activity | no cytotoxic activity | – |
| CCCCCCCCCCCCCCCC(=O)OCC(COC(=O)CCC(=O)O[C@H]1CC[C@@]2(C)C(=CC[C@H]3[C@@H]4CC[C@H]([C@H](C)/C=C/[C@@H](CC)C(C)C)[C@@]4(C)CC[C@@H]32)C1)OC(=O)CCC(=O)O[C@H]1CC[C@@]2(C)C(=CC[C@H]3[C@@H]4CC[C@H]([C@H](C)/C=C/[C@@H](CC)C(C)C)[C@@]4(C)CC[C@@H]32)C1 (stereo partly shown) [dStigS-PA, 1,2-Distigmasterylsuccinoyl-3-Palmitoyl-sn-Glycerol] | – | – | – | – | – | – | no cytotoxic activity | no cytotoxic activity | no cytotoxic activity | 91 to 93 |

— article PMC8617691, “Distigmasterol-Modified Acylglycerols as New Structured Lipids—Synthesis, Identification and Cytotoxicity” (Molecules, 2021)
